Several values for one entry are separate records, joined by “and”; a condition that tells them apart may be missing. Equal values may be shown once. Read-outs that look alike come from different tables or passages of the source. Each block holds one compound with its values, some of them ahead of it.
Legend:
[1] = Study 1: effect of steady-state rifampin on single-dose pharmacokinetics of canagliflozin, M7 and M5; conditions: day 10 (with canagliflozin, fasted) vs day 9 (alone, fed)
From the text: (§2) For each study, the participants were enrolled at different individual study centers in the US. Study 1 (rifampin study, NCT01395927) was a single-center, open-label, fixed-sequence study to evaluate the effects of steady-state rifampin on the single-dose PK of canagliflozin. The study consisted of a screening period of 20 days (from day –21 to ‒2), a 14-day open-label period (from day –1 to 13), followed by an end-of-study period (5 – 7 days) consisting of follow-up assessments. Participants received canagliflozin 300 mg (tablet) q.d. on day 1 and rifampin 600 mg q.d. (as two 300 mg capsules) on days 4 – 9. On day 10, canagliflozin (300 mg) plus rifampin (600 mg) was administered, followed by rifampin alone (600 mg) administration on days 11 – 12. The study drugs were administered under a fasted state.
(§3) Study 1: Venous blood (4 mL each) samples for the determination of canagliflozin, M7, and M5 plasma concentrations were collected pre-dose, and up to 72 hours post-dose (at 0.5, 1, 1.5, 2, 3, 4, 6, 8, 10, 12, 16, 24, 48, and 72 hours) on days 1 and 10. Urine samples for the determination of canagliflozin, M7, and M5 in urine were collected over the intervals of 0 – 4 hours, 4 – 12 hours, 12 – 24 hours, 24 – 48 hours, and 48 – 72 hours on days 1 and 10. Venous blood samples (2 mL each) for the determination of rifampin plasma concentrations were collected 2 hours after rifampin administration on days 9 and 10.
(§4) Blood samples for canagliflozin, M7 and M5, rifampin and probenecid were centrifuged (10 minutes at 1,300 rpm), and the obtained plasma was stored at or below –20 °C. […] Urine samples were collected in polyethylene containers for the PK evaluation of canagliflozin, M7, and M5. Two aliquots (3 mL in study 1 and 2 mL in study 2) of urine sample were transferred into polyethylene tubes and were stored at or below –20 °C.
(§5) The EDTA plasma samples were analyzed to determine the concentrations of canagliflozin with a validated [29, 30] liquid chromatography coupled to tandem mass spectrometry/mass spectrometry (LC-MS/MS) method (Frontage, Shanghai, China). A ^13C6 analogue of canagliflozin was used as internal standard (IS). Briefly, the sample was processed using a liquid-liquid extraction with tert-butyl methyl ether. The LC phase used a 5 cm × 4.6 mm column packed with XBridge C18 (Waters, Milford, MA, USA) with a mobile phase of ammonium acetate 0.01M (30%) and methanol (70%), and a flow rate of 1.2 mL/min. Quantification was achieved by MS/MS detection with an API4000, equipped with TurboIonSpray (TIS) interface (AB Sciex, Framingham, MA, USA), in the positive ion multiple reaction monitoring (MRM) mode. Canagliflozin and IS were monitored at mass transitions m/z 462.1 → 267.0 and m/z 468.1 → 273.0, respectively. The quantitation range was 5.0 – 10,000 ng/mL.
(§6) Plasma (validated) and urine (qualified) concentrations of M7 and M5 were also determined using ^13C6-canagliflozin as IS at Frontage Laboratories (Shanghai) Co., Ltd. Samples underwent protein precipitation, with acetonitrile. The LC-MS/MS quantitation was done with the same equipment as for canagliflozin. The LC phase used a 5 cm × 4.6 mm column packed with XBridge C18 with a mobile phase of ammonium acetate 0.01M (pH 4) and methanol at ratio 40/60 (v/v) at a flow rate of 1.2 mL/min. After 3.5 minutes, the composition was changed to 98% methanol for 1 minute to flush the column. Using positive ion MRM on an API4000, equipped with TIS, both metabolites were measured at mass transition m/z 638.2 → 427. The quantitation range was 5.0 – 10,000 ng/mL for both metabolites in plasma, and 100 – 100,000 ng/mL in urine.
(§7) Pharmacokinetic analyses of plasma and urine concentrations was done by non-compartmental method using validated WinNonlin® software Version 5.2.1 (Pharsight Corporation, Mountain View, CA, USA).

[2] = Study 1 safety: treatment-emergent adverse events; conditions: drug administered alone; n = 14
From the text: as §2
(§8) Safety and tolerability were monitored throughout all three studies by evaluation of the incidence and the type of treatment-emergent adverse events (TEAEs), and change from baseline in: clinical laboratory tests (including hematology, serum chemistry, urinalysis, and urine uric acid analysis (study 2 only)), physical examination of all body systems except genitalia and breast (by a study physician), body weight, height, and BMI, vital signs (including systolic and diastolic blood pressure, heart rate, and body temperature), and 12-lead electrocardiographys (ECGs) (including cardiac rhythm, waveform morphology, and interval duration).
(§9) Results of the clinical laboratory parameters and vital signs were summarized using descriptive statistics.

[3] = parameters: method as in PMID 21189429, PMID 6643696; conditions: under fed conditions; cited from earlier work
OATP1B1 = conditions: in vitro studies; no reference given; cited from earlier work
[4] = parameters: method as in PMID 22226086, PMID 22492586; conditions: canagliflozin 300 mg b.i.d., cited from earlier work
P-gp = tested on: P-gp; parameters: method as in unpublished data; conditions: MDR1-expressing MDCK cells; ref unpublished data; cited from earlier work
OAT3 = conditions: no reference given; cited from earlier work
[5] = Study 2 safety: treatment-emergent adverse events; type: in vivo, human
Protocol: (§1) The study consisted of a 19-day screening period (from day –21 to –3), a 20 day open-label period (from day –2 to 18), followed by an end-of-study period (7 – 10 days). […] Participants received study drugs under fasted state on days 14 and 17. On all other study days, participants received a standardized meal 1 hour after the study drug administration. Diet was standardized in order to stabilize uric acid levels, and participants were advised not to consume highly purine-enriched foods.

[6] = human, in vivo
Protocol: (§10) The study consisted of a 3-week screening period (from day –22 to –2), an 11 day open-label period (from day –1 to 10), followed by an end-of-study period consisting of 2 follow-up assessments occurring from 7 to 10 days and again from 14 to 18 days after the last dose of the study drug administration. Canagliflozin 300 mg (tablet) q.d. was administered on days 1 through 8 under fasted state.
Study 3: Venous blood (4 mL each) samples for the determination of canagliflozin plasma concentration were collected at pre-dose on days 2, 3, 4, 5, and 6, and at pre-dose and up to 24 hours post-dose (at 0.5, 1, 1.5, 2, 3, 4, 5, 6, 10, 12, 16, and 24 hours) on days 7 and 8.
as §4, §5
Pharmacokinetic analyses of plasma and urine concentrations was done by non-compartmental method using validated WinNonlin® software Version 5.2.1 (Pharsight Corporation, Mountain View, CA, USA). […] The assessed pharmacokinetic parameters of canagliflozin, M7, and M5 in study 2, and of canagliflozin in study 3 were: Cmax during a dosing interval at steady state (Cmax.ss), observed plasma concentration before dosing or at the end of a dosing interval (Ctrough; only for canagliflozin), tmax during a dosing interval at steady state (tmax.ss), and AUC during a dosing interval at steady state (AUCτ.ss). Additionally, M/P ratio (corrected for the differences in molecular weights) for Cmax.ss, AUCτ.ss, Ae during a collection interval (Aet1-t2), %Ae dose, and CLR were calculated for study 2.
A mixed-effects model was fitted to the log-transformed data of AUC or Cmax as dependent variables, treatment (with or without coadministration of the other drug) as a fixed effect, and participant as a random effect. The estimated least-square means and intra-participant variability from the mixed-effect model was used to construct 90% confidence interval (CI) for the difference in means of AUC or Cmax on the log-scale between the two treatments. The limits of the CIs were retransformed using antilogarithms to obtain the 90% CI for the ratio of the geometric mean AUC or Cmax.

[7] = in vivo
From the text: as §2, §8, §9

OAT1 = conditions: in vitro studies; no reference given; cited from earlier work
P-glycoprotein (P-gp) = tested on: P-glycoprotein (P-gp); parameters: method as in earlier work; conditions: in vitro experiments; cited from earlier work
[8] = Study 2: effect of multiple-dose probenecid on steady-state pharmacokinetics of canagliflozin, M7 and M5; type: in vivo, human; conditions: for trough plasma concentration, mean (SD): canagliflozin 300 mg q.d.; for % Ae (dose): cumulative amount excreted into the urine: corrected for molecular weight when necessary; for tmax.ss: median (range)
Protocol: as §1

[9] = tested on: multidrug resistance protein 2 (MRP2); parameters: method as in earlier work; conditions: in vitro experiments; cited from earlier work
[10] = parameters: method as in PMID 23670707; conditions: cited from earlier work
[11] = Safety and tolerability across the three studies; type: in vivo, human
From the text: as §8, §9

[12] = Study 3 safety: treatment-emergent adverse events; type: in vivo, human
Protocol: as §10, §8

[13] = in vivo; remark: listed apart in the source
From the text: as §2, §3, §4, §5, §6, §7

[14] = canagliflozin and probenecid coadministration, 1/12
[15] = canagliflozin + probenecid (test), geometric mean, n = 11
[16] = canagliflozin + probenecid vs canagliflozin alone
[17] = canagliflozin + probenecid, arithmetic mean (SD)
[18] = canagliflozin alone (reference), geometric mean, n = 11
[19] = canagliflozin alone, arithmetic mean (SD)
[20] = probenecid coadministration vs canagliflozin alone

increase in plasma rifampin concentration at 2 hours [1]: 24%
Compound: CO[C@H]1/C=C/O[C@@]2(C)Oc3c(C)c(O)c4c(O)c(c(/C=N/N5CCN(C)CC5)c(O)c4c3C2=O)NC(=O)/C(C)=C\C=C\[C@H](C)[C@H](O)[C@@H](C)[C@@H](O)[C@@H](C)[C@H](OC(C)=O)[C@@H]1C [rifampin]
participants with TEAEs [2]: 50%
reduction of rifampin absorption [3]: 30%

Compound: Canagliflozin
substrate of OATP1B1 (OATP1B1): not a substrate
tolerability ([4]; 2-week multiple-dose study and 12-week dose-ranging study in T2DM): well-tolerated
plasma AUCτ.ss higher than with the 300 mg q.d. dose [4]: 93%
plasma Cmax.ss higher than with the 300 mg q.d. dose [4]: 32%
P-gp substrate status (P-gp): P-gp substrate
basal-to-apical/apical-to-basal efflux ratio (P-gp): 2.0
substrate of OAT3 (OAT3): not a substrate
participants with headache ([5]; canagliflozin alone, 2/14): 14.3%
participants with ≥ 1 TEAE ([5]; canagliflozin alone, 4/14): 28.6%
participants with abdominal discomfort [5, 14]: 8.3%
participants with diarrhea [5, 14]: 8.3%
participants with headache [5, 14]: 8.3%
participants with muscle twitching [5, 14]: 8.3%
participants with musculoskeletal pain [5, 14]: 8.3%
participants with pruritis [5, 14]: 8.3%
participants with urethral pain [5, 14]: 8.3%
participants with ≥ 1 TEAE ([5]; canagliflozin and probenecid coadministration, 5/12): 41.7%
AUCτ.ss [6]: 22,243.50 ng×h/mL
Cmax.ss [6]: 2,864.03 ng/mL
tmax.ss [6]: 2.00 (1.00 – 3.00) h
AUCτ.ss ([6]; 300 mg): 22,158 (4203) ng×h/mL
Cmax.ss ([6]; 300 mg): 2,887 (735) ng/mL
participants with TEAEs [7]: 21.4%
participants with abdominal discomfort [7]: 7.1%
participants with polyuria [7]: 7.1%
participants with thirst [7]: 7.1%
substrate of OAT1 (OAT1): not a substrate
substrate of P-glycoprotein (P-gp) (P-glycoprotein (P-gp)): substrate
AUC∞.ss ([8]; canagliflozin 300 mg q.d. + probenecid 500 mg b.i.d. (day 17), arithmetic mean (SD), n = 12): 26,225 (5261) ng×h/mL
AUC∞.ss ([8]; canagliflozin 300 mg q.d. alone (day 14), arithmetic mean (SD), n = 12): 21,861 (4290) ng×h/mL
trough plasma concentration, mean (SD) ([8]; day 13): 381 (110) ng/mL
trough plasma concentration, mean (SD) ([8]; day 14): 366 (117) ng/mL
trough plasma concentration, mean (SD) ([8]; day 15): 358 (110) ng/mL
AUC∞.ss [8, 15]: 26,011.71 ng×h/mL
Cmax.ss [8, 15]: 3,008.66 ng/mL
AUCτ.ss, estimated ratio (test/reference) of geometric means (90% CI) [8, 16]: 120.74 (116.37; 125.27) %
AUC∞.ss, estimated ratio (test/reference) of geometric means (90% CI) [8, 16]: 120.74 (116.37; 125.27) %
Cmax.ss, estimated ratio (test/reference) of geometric means (90% CI) [8, 16]: 113.37 (100.37; 128.06) %
CLR (renal clearance, Ae24/AUC24) [8, 17]: 0.0569 (0.00944) L/h
% Ae (dose): cumulative amount excreted into the urine [8, 17]: 0.495 (0.136) % dose
tmax.ss ([8]; canagliflozin + probenecid): 1.67 (1.42 – 5.92) h
AUC∞.ss [8, 18]: 21,543.95 ng×h/mL
Cmax.ss [8, 18]: 2,653.85 ng/mL
CLR (renal clearance, Ae24/AUC24) [8, 19]: 0.0868 (0.0297) L/h
% Ae (dose): cumulative amount excreted into the urine [8, 19]: 0.609 (0.217) % dose
tmax.ss ([8]; canagliflozin alone): 1.92 (1.42– 3.92) h
Cmax.ss ([8]; plasma, canagliflozin 300 mg q.d. + probenecid 500 mg b.i.d. (day 17), arithmetic mean (SD), n = 12): 3,105 (680) ng/mL
Cmax.ss ([8]; plasma, canagliflozin 300 mg q.d. alone (day 14), arithmetic mean (SD), n = 12): 2,699 (814) ng/mL
decrease in mean CLR [8, 20]: ~ 34%
increase in AUCτ.ss (systemic exposure) [8, 20]: 21%
increase in Cmax.ss [8, 20]: 13% and ~ 13%
substrate of MRP2 [9]: substrate
canagliflozin dose excreted in urine as unchanged canagliflozin [10]: less than 1%
changes in clinical laboratory values, vital signs, physical examinations, or ECGs ([11]; any of the three studies): No consistent, clinically relevant changes
deaths, serious TEAEs, or discontinuations due to TEAEs ([11]; any of the three studies): No deaths, serious TEAEs, or discontinuations due to TEAEs
tolerability ([11]; canagliflozin 300 mg coadministered with rifampin, probenecid, and cyclosporine A, healthy participants): generally well-tolerated
participants with diarrhea ([12]; canagliflozin alone, 2/18): 11.1%
participants with oropharyngeal pain ([12]; canagliflozin alone, 2/18): 11.1%
participants reporting TEAEs ([12]; canagliflozin alone, 6/18): 33.3%
participants with flushing ([12]; canagliflozin and cyclosporine A coadministration, 15/18): 83.3%
participants reporting TEAEs ([12]; canagliflozin and cyclosporine A coadministration, 17/18): 94.4%
AUC∞ ([13]; human): 20,938.95 ng×h/mL
CLR (renal clearance, Ae0–72/AUC0–72h) ([13]; human): 0.0849 (0.0318) L/h
Cmax ([13]; human): 2,358.29 ng/mL
t1/2 ([13]; human): 12.9 (2.42) h
tmax ([13]; human): 2.00 (1.00 – 4.00) h
AUC∞ ([13]; human, 300 mg): 21,695 (6151) ng×h/mL
Cmax ([13]; human, 300 mg): 2,474 (805) ng/mL
Ae (% dose): cumulative amount excreted into the urine [13]: 0.578 (0.180) % dose

Source: publication PMC4558628 (International Journal of Clinical Pharmacology and …, 2014)
